The structures appear in SMILES notation.

In this assay the target is T1, Recombinant human renin (Homo sapiens, UniProt P00797).
T1 sequence (P00797 67-406): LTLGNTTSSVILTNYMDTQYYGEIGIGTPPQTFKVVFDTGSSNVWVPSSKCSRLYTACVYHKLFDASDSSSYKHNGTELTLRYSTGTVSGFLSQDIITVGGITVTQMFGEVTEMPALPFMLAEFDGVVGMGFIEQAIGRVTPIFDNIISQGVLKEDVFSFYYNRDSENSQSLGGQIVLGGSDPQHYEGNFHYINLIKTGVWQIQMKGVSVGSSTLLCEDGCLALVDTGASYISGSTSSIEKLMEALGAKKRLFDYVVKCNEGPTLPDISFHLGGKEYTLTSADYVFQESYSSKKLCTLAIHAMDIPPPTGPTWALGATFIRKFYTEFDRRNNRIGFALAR
Put plainly: Inhibitory activity against human renin (fluorogenic peptide substrate). It counts as biochemical. The settings on record: 50% inhibitory concentration (IC50) against human renin, 37° C. for 1 hour.
As to `COC(=O)NCCCn1nc([C@H](C)N(C(=O)[C@H]2CNCCO2)C2CC2)cc1OC(C)C` [Example 326], the IC50 stood at 0.4 nM.

As to `COC[C@H]1CO[C@@H](C(=O)N(C2CC2)[C@@H](C)c2nn(CCCNC(=O)OC)c(C3CCOCC3)c2C)CN1` [Example 327], the IC50 was 2.9 nM. Consider `COC[C@H]1CO[C@@H](C(=O)N(C2CC2)[C@@H](C)c2nn(CCCNC(=O)OC)c(C3CCOCC3)c2F)CN1` [Example 328], for which the IC50 is 1.1 nM. On to `CCc1cc([C@H](C)N(C(=O)[C@H]2CNC[C@@H](COC)O2)C2CC2)cc(CCCNC(=O)OC)n1` [Example 329], for which the IC50 came out at 0.8 nM. As to `COC[C@@H]1CNC[C@H](C(=O)N(C2CC2)[C@@H](C)c2nn(CCCNC(=O)OC)c(C3CCOCC3)c2F)O1` [Example 330], the IC50 came out at 0.3 nM.

`COC[C@H]1CO[C@@H](C(=O)N(C2CC2)[C@@H](C)c2cc(OC(C)C)n(CCCNC(=O)OC)n2)CN1` [Example 331]: the IC50 came out at 2.3 nM. The result for `COC(=O)NCCCn1nc([C@@H](C)N(C(=O)[C@H]2CN[C@@H](CCF)CO2)C2CC2)c2ccc(C)nc21` [Example 332] reads 0.4 nM. For `COC(=O)NCCCn1cc([C@H](C)N(C(=O)[C@H]2CNC[C@@H](C)O2)C2CC2)nc1C1CCCCC1` [Example 333] the value was 0.3 nM; for `COC(=O)NCCCc1cc([C@H](C)N(C(=O)[C@H]2CNC[C@@H](COc3ccccc3)O2)C2CC2)nn1C1CCOCC1` [Example 334], 0.3 nM. The result for `COC(=O)NCCCn1cc([C@H](C)N(C(=O)[C@H]2CN[C@@H](C)CO2)C2CC2)nc1C1CCCCC1` [Example 335] reads 0.9 nM. With `CC[C@H]1CO[C@@H](C(=O)N(C2CC2)[C@@H](C)c2cn(CCCNC(=O)OC)c(OC(C)C)n2)CN1` [Example 336], the IC50 amounted to 1.6 nM. The result for `COC[C@@H]1CNC[C@H](C(=O)N(C2CC2)[C@@H](C)c2nn(CCCNC(=O)OC)c(-c3ccccn3)c2C)O1` [Example 337] reads 1.2 nM. For the compound `COC[C@H]1CO[C@@H](C(=O)N(C2CC2)[C@@H](C)c2nn(CCCNC(=O)OC)c(-c3ccccn3)c2C)CN1` [Example 338], the IC50 came out at 5.3 nM. Take `COC(=O)NCCCn1cc([C@H](C)N(C(=O)[C@H]2CNC[C@@H](COCc3ccccc3)O2)C2CC2)nc1C1CCOCC1` [Example 339]: the IC50 was 0.4 nM. For `COC(=O)NCCCc1cc([C@H](C)N(C(=O)[C@H]2CNC[C@@H](CF)O2)C2CC2)nn1C1CCOCC1` [Example 340] the value was 0.7 nM; for `COC(=O)NCCCn1cc([C@H](C)N(C(=O)[C@H]2CN[C@@H](CCF)CO2)C2CC2)nc1OC(C)C` [Example 341], 0.3 nM; for `COC(=O)NCCCc1cc([C@@H](C)N(C(=O)[C@H]2CNC[C@@H](C)O2)C2CC2)cc(C2CC2)n1` [Example 342], 0.4 nM. On to `COC(=O)NCCCc1nc(C(C)N(C(=O)[C@H]2CNCCO2)C2CC2)c(C)n1-c1ccccc1` (stereo partly shown) [Example 343], for which the IC50 was found to be 5.3 nM. As to `COC(=O)NCCCc1cc([C@@H](C)N(C(=O)[C@H]2CNC[C@@H](C)O2)C2CC2)nn1-c1cccc(C)c1` [Example 344], the IC50 is 0.4 nM.

Consider `COC(=O)NCCCc1cc([C@@H](C)N(C(=O)[C@H]2CNC[C@@H](C)O2)C2CC2)nn1-c1ccccc1C` [Example 345], for which the IC50 came to 0.4 nM. As for `COC(=O)NC/C=C/c1cc([C@@H](C)N(C(=O)[C@H]2CNC[C@@H](C)O2)C2CC2)nn1-c1cccc(Cl)c1` [Example 346], the IC50 turned out to be 1.3 nM.

`COC(=O)NCCCc1cc([C@@H](C)N(C(=O)[C@H]2CNC[C@@H](C)O2)C2CC2)nn1-c1cccc(F)c1F` [Example 347]: the IC50 was found to be 0.7 nM.

Consider `COC(=O)NCCCc1cc([C@@H](C)N(C(=O)[C@H]2CNCCO2)C2CC2)nn1-c1cccc(C(F)(F)F)c1` [Example 348], for which the IC50 amounted to 0.7 nM. The result for `COC(=O)NCCCc1cc([C@@H](C)N(C(=O)[C@H]2CNC[C@@H](C)O2)C2CC2)nn1-c1cccc(C(F)(F)F)c1` [Example 349] reads 1.1 nM; that for `COC(=O)NCCCc1cc(C(C)N(C(=O)[C@H]2CNC[C@@H](C)O2)C2CC2)nn1-c1ccccc1C(F)(F)F` (stereo partly shown) [Example 350], 1.9 nM. Turning to `COC(=O)NCCCc1cc([C@@H](C)N(C(=O)[C@H]2CNC[C@@H](C)O2)C2CC2)nn1-c1ccc(F)cc1` [Example 351], the IC50 was determined as 0.4 nM.

`COC(=O)NCCCc1cc([C@@H](C)N(C(=O)[C@H]2CN[C@@H](C)CO2)C2CC2)cc(C2CC2)n1` [Example 352]: the IC50 was found to be 7.6 nM. For `COC(=O)NCCCn1cc([C@@H](C)N(C(=O)[C@H]2CN[C@@H](C)CO2)C2CC2)nc1-c1ccccc1` [Example 353] the value was 0.4 nM; for `COC(=O)NCCCc1cc([C@@H](C)N(C(=O)[C@H]2CNC[C@@H](C)O2)C2CC2)nn1-c1ccc(C(F)(F)F)cc1` [Example 354], 1.4 nM. For `COC(=O)NCCCc1cc([C@@H](C)N(C(=O)[C@H]2CN[C@@H](C)CO2)C2CC2)nn1-c1ccccc1` [Example 355] the value was 0.8 nM.

Regarding `COC(=O)NC/C=C/c1cc([C@@H](C)N(C(=O)[C@H]2CNC[C@@H](C)O2)C2CC2)nn1-c1ccc(C(F)(F)F)cc1` [Example 356], the IC50 came out at 5.1 nM.

Consider `COC(=O)NC/C=C/c1cc([C@@H](C)N(C(=O)[C@H]2CNCCO2)C2CC2)nn1-c1ccccc1` [Example 357], for which the concentration for half-maximal inhibition (IC50) amounted to 3.5 nM. For `COC(=O)NC/C=C/c1cc([C@@H](C)N(C(=O)[C@H]2CN[C@@H](C)CO2)C2CC2)nn1-c1ccccc1` [Example 358] the value was 5.7 nM; for `COC(=O)NCCCc1cc([C@@H](C)N(C(=O)[C@H]2CNC[C@@H](C)O2)C2CC2)nn1-c1cccc(F)c1` [Example 359], 0.3 nM. For `COC(=O)NCCCc1nc(C(C)N(C(=O)[C@H]2CNCCO2)C2CC2)nn1-c1cccc(Cl)c1` (stereo partly shown) [Example 360] the value was 7.6 nM; for `COCCCOc1cc([C@@H](C)N(C(=O)[C@H]2CNCCO2)C2CC2)nn1-c1ccccc1` [Example 361], 0.8 nM; for `COC(=O)NCCCc1cc([C@@H](C)N(C(=O)[C@H]2CNCCO2)C2CC2)cc(N(C)S(C)(=O)=O)n1` [Example 362], 5 nM. As to `COC(=O)NCCCc1nc([C@@H](C)N(C(=O)[C@H]2CNCCO2)C2CC2)nn1-c1cccc(Cl)c1` [Example 365], the IC50 worked out at 3.5 nM.

For `COCCOc1cc([C@@H](C)N(C(=O)[C@H]2CNC[C@@H](C)O2)C2CC2)cc(CCCNC(=O)OC)n1` [Example 366], the IC50 turned out to be 0.7 nM. Consider `COC(=O)NCCCc1cc([C@@H](C)N(C(=O)[C@H]2CNC[C@@H](C(F)(F)F)O2)C2CC2)nn1-c1ccccc1` [Example 367], for which the IC50 was 1.7 nM. In the case of `COC(=O)NCCCc1sc([C@@H](C)N(C(=O)[C@H]2CN[C@@H](C)CO2)C2CC2)nc1-c1cccc(Cl)c1` [Example 368], the half-maximal inhibitory concentration (IC50) is 8.4 nM. For `COC(=O)NCCCc1cc([C@@H](C)N(C(=O)[C@H]2CNC[C@@H](CF)O2)C2CC2)nn1-c1ccccc1` [Example 369] the value was 1.5 nM; for `COC(=O)NCCCc1cc([C@@H](C)N(C(=O)[C@H]2CN[C@@H](C)CO2)C2CC2)nn1-c1cccc(F)c1` [Example 370], 1.7 nM. For `COC(=O)NCCCc1cc([C@@H](C)N(C(=O)[C@H]2CN[C@@H](C)CO2)C2CC2)nn1-c1ccc(F)cc1` [Example 371] the value was 1 nM; for `COC(=O)NCCCc1cc([C@@H](C)N(C(=O)[C@H]2CN[C@@H](CF)CO2)C2CC2)nn1-c1ccc(F)cc1` [Example 372], 6 nM; for `COCCCc1cc([C@@H](C)N(C(=O)[C@H]2CNC[C@@H](C)O2)C2CC2)cc(CCCNC(=O)OC)n1` [Example 373], 0.8 nM. Consider `COC(=O)NCCCc1cc([C@@H](C)N(C(=O)[C@H]2CNCCO2)C2CC2)nc(C2CC2)n1` [Example 374], for which the IC50 is 5.4 nM.

In the case of `COC(=O)NCCCc1nc(OC)cc([C@@H](C)N(C(=O)[C@H]2CNC[C@@H](C)O2)C2CC2)n1` [Example 375], the IC50 is 1.3 nM. The result for `COC(=O)NCCCc1nc([C@@H](C)N(C(=O)[C@H]2CNC[C@@H](C)O2)C2CC2)sc1-c1cccc(Cl)c1` [Example 376] reads 4.7 nM; that for `COC(=O)NCCCc1nc([C@@H](C)N(C(=O)[C@H]2CNCCO2)C2CC2)sc1-c1cccc(Cl)c1` [Example 377], 2.4 nM; that for `COC[C@@H]1CNC[C@H](C(=O)N(C2CC2)[C@H](C)c2nc(CCCNC(=O)OC)c(-c3cccc(Cl)c3)s2)O1` [Example 378], 3.5 nM. For `CCc1cc([C@@H](C)N(C(=O)[C@H]2CNCCO2)C2CC2)nc2c1cnn2CCCOC` [Example 379] the value was 8.9 nM; for `CCc1cc([C@@H](C)N(C(=O)[C@H]2CNC[C@@H](C)O2)C2CC2)nc2c1cnn2CCCOC` [Example 380], 2.6 nM. The result for `COC[C@@H]1CNC[C@H](C(=O)N(C2CC2)[C@H](C)c2nc(CCCNC(=O)OC)n(-c3cccc(Cl)c3)n2)O1` [Example 381] reads 1.7 nM; that for `COCCCc1cc([C@@H](C)N(C(=O)[C@H]2CNC[C@@H](COC)O2)C2CC2)cc(CCCNC(=O)OC)n1` [Example 382], 3.6 nM.

On to `COCCOc1cc([C@@H](C)N(C(=O)[C@H]2CNC[C@@H](COC)O2)C2CC2)cc(CCCNC(=O)OC)n1` [Example 383], for which the IC50 was 1.3 nM. For `COCCOc1cc([C@H](C)N(C(=O)[C@H]2CNC[C@@H](COC)O2)C2CC2)cc(CCCNC(=O)OC)n1` [Example 384] the value was 3.2 nM. As for `COCCCn1ncc2c(C)cc([C@@H](C)N(C(=O)[C@H]3CNC[C@@H](COC)O3)C3CC3)nc21` [Example 385], the IC50 was determined as 4.3 nM.
